{"source": "patent US11540515B2", "about": "“Use of dialkoxybenzenes for control of honey bee mite varroa destructor” (Simon Fraser University, priority 2018, dated 2023)", "key": {"Varroa": {"tested_on": "Varroa", "assay": "Choice bioassay (forager vs nurse bee) in petri dish", "format": "in vivo, Varroa destructor", "conditions": "in presence of compound, monitored for 3 hours", "protocol": "Functional activity of the compound was performed using choice bioassay. Briefly, in the presence of the synthetic compound or solvent as a control, the mites were given a choice of two bees (a forager and a nurse) in a petri dish (90 mm diameter and 17 mm deep glass). The movement of Varroa and its host preference were monitored at every hour for 3 hours."}, "Varroa destructor mites": {"tested_on": "Varroa destructor mites", "assay": "Example 3 mite paralysis/death in the absence of bees", "format": "in vivo", "conditions": "no bees", "protocol": "Experiments were performed in the dishes: i) dose response assays with a single compound at different doses of compound on the Parafilm (1 ng, 10 ng, 100 ng, 1 μg, 10 μg, 100 μg, 1 mg and 10 mg), ii) a screen with six compounds, all at a 1 mg dose, iii) an assay with blends of compounds 3c{3,6} and 3c{6,6}, and iv) one assay without bees (only to check for mite paralysis and death), with compounds 3c{3,6} and 3c{6,6}(pure or 1:1 blend), at 0.5 and 1 mg doses.\nCompounds 3c{3,6}, 3c{6,6} were tested on mites in the absence of bees, alone and as a 1:1 blend. Mite paralysis and death were checked every 30 min, up to 4.5 h after initial exposure. Four doses were tested: 0.2, 0.5, 1 and 10 mg."}, "Varroa mites": {"tested_on": "Varroa mites", "assay": "Example 6 behavioral dose response bio-assays of Varroa mites", "format": "in vivo", "description": "Foragers were collected at the entrance of one or more honey bee hives by aspiration into a jar, when bees were flying back to the colony.\nInitially, nurses were collected from an open brood frame of a honey bee hive. Bees apparently attending the brood were targeted for collection. As time passed and temperatures started to drop no open brood was observed, therefore subsequent collections targeted bees around sealed brood. At the end of the sampling period no sealed brood was present, so bees taken from the middle frame of a brood chamber were considered nurses.\nBoth foragers and nurses were immediately transferred to individual plastic cages (118×98×81 mm: H×W×D), fed with syrup (2:1) and kept overnight in an incubator at 30° C. and 70% RH. Next day, cages were inspected for any dead bees to be removed before freeze killing the bees on dry ice.\nFor Varroa mite collection, adult bees were taken from the brood chamber's central frames of a mite-infested hive using a glass jar. Bees were fed with syrup (2:1), and kept in an incubator at 30° C. and 70% RH until needed. First collections were made from frames with open and sealed brood, later only from sealed brood frames.\nMite-infested bees in the glass jar were dusted with icy sugar and shaken over a large plastic weighing boat. Dislodged Varroa were immediately transferred with a fine paint brush to a wet filter paper in a plastic petri dish to avoid desiccation. Individual mites were placed then onto the middle of a glass petri dish bottom (10 cm diameter) with a fresh freeze-killed forager or nurse bee on opposite sides of the plate. Synthesized compounds were applied onto a 1 cm^2 Parafilm square attached to the center of the petri dish cover's inner face, Hexane was used as control.\nThe bio-assays with a forager and a nurse bee, Varroa mite, and synthesized compounds were set in glass petri dishes placed into an incubator at 30° C. and 70% relative humidity. […] Mite paralysis and death were recorded after 3 h and 5 h."}, "honey bees [1]": {"tested_on": "honey bees", "assay": "Bee mortality in hoarding cages, 3c{3,6} provided in sugar solution", "format": "in vivo, Apis mellifera", "protocol": "3c{3,6} provided in sugar solution: The test was conducted on twenty freshly collected bees in hoarding cages as described above. […] In addition, no differences were apparent in the general behavior of the honeybees. Furthermore, honey bees can ingest compound 3c{3,6} without harm and without increase in mortality."}, "honey bees [2]": {"tested_on": "honey bees", "assay": "Bee mortality in hoarding cages, 3c{3,6} sensed by smell", "format": "in vivo, Apis mellifera", "protocol": "3c{3,6} sensed by smell: Bees were maintained in the classic hoarding cages. The test was conducted on twenty freshly collected bees in hoarding cages as above. The method that was used for screening potentially harmful compounds was as described, for example, in Medrzycki et al., 2013 (J. Apicultural Res. 52 (4): UNSP 52.4.14, http://dx.doi.org/10.3896/IBRA.1.52.4.14, incorporated herein by reference in its entirety. The bees were provided with water and candy at lib. The experiments were conducted in ten sets in the presence of 30 μl of hexane containing 300 μg of the 3c{3,6} compound presented in Parafilm (5×5 cm); 30 μl of pure hexane was used for control. The experimental and control cages were kept in separate incubators at (28-30° C.) and RH (50-70%) and the bee mortality rate was recorded at 24, 48 and 72 hours. Survival of bees in control and treated groups at the end was similar (79-90%)."}}, "note": "Entries after “also recorded” stand apart in the source; their conditions may differ.", "data": [{"smiles": "C=CCOc1ccc(OCCC)cc1", "note": "[3c{3,6}, 1-allyloxy-4-propoxybenzene]", "values": [{"measurement": "ability of Varroa to reach any host", "setting": "Varroa", "value": "decreased"}, {"measurement": "mite paralysis+death", "setting": "Varroa destructor mites; 0.2 mg, 4.5 h", "value": 40, "unit": "%"}, {"measurement": "mite paralysis+death", "setting": "Varroa destructor mites; 0.5 mg, 4.5 h", "value": 80, "unit": "%"}, {"measurement": "mite paralysis or death", "setting": "Varroa destructor mites; 1 mg, up to 4.5 h", "value": 100, "unit": "%"}, {"measurement": "mite paralysis or death", "setting": "Varroa destructor mites; 10 mg, 4.5 h", "value": 100, "unit": "%"}, {"measurement": "mites dead", "setting": "Varroa mites; 100 μg", "value": "half of the mites dead"}, {"measurement": "mite paralysis/mortality", "setting": "Varroa mites; 1 mg", "value": 100, "unit": "%"}, {"measurement": "mite paralysis/mortality (words)", "setting": "Varroa mites; 1 mg", "value": "total effectivity; also recorded: all mites"}, {"measurement": "doses at which mites were paralyzed or killed", "setting": "Varroa mites; FIG. 9 / FIG. 10", "value": "≥ 10", "unit": "µg"}, {"measurement": "effect on the honeybees", "setting": "honey bees [1]", "value": "did not have negative effect"}, {"measurement": "bees died at the end of experiment", "setting": "honey bees [1]; after 72 hours, treated group (control 21%)", "value": 5, "unit": "%"}, {"measurement": "Survival of bees at the end", "setting": "honey bees [2]; 300 μg in 30 μl hexane on Parafilm, 72 hours, control and treated groups similar", "value": "79-90%"}, {"measurement": "lethal effect to the honey bees", "setting": "honey bees [2]; in vivo", "value": "No lethal effect"}]}]}
